In US5686494A, “Pharmaceutical preparations for ameliorating epigastric functional disorders” (Daiichi Pharmaceutical Co., Ltd., priority 1993, dated 1997):
Several values for one entry are separate records, joined by “and”; a condition that tells them apart may be missing. Identical values can stand only once. Ends that are not written are not given here. * marks the point of attachment. SO3H = O=S(=O)(O)*

Legend:
[1] = tested on: cholecystokinin (CCK)-induced delayed gastric emptying model; test: Effect on gastric emptying in cholecystokinin (CCK)-induced delayed gastric emptying model (Phenol red method); type: in vivo, male Slc:ddY mice; conditions: for Gastric emptying rate (%): 90 min before phenol red, CCK 5 μg/kg i.p. 5 min before, measured 30 min after phenol red
Experimental: Effect on gastric emptying in cholecystokinin (CCK)-induced delayed gastric emptying model (Phenol red method)
After overnight fasting, male Slc:ddY mice of 6 to 7 weeks of age (body weight, 20 to 30 g; SLC, Shizuoka, Japan) were divided into six groups: a group in which cholecystokinin was administered with no drug treatment (No. 1 in Table 1), groups in which cholecystokinin was administered after administration of compound A (Nos. 2 to 4), a group in which cholecystokinin was administered after administration of cisapride as a positive control (No. 5) and a group in which cholecystokinin and drug treatments were not made (No. 6). Five to 15 mice were used in each group.
First, 90 minutes before the administration of phenol red, 1 mg/kg, 3 mg/kg or 10 mg/kg of compound A suspended in 0.5% carboxymethylcellulose was orally administered to mice of the compound A administration groups, respectively, (Nos. 2 to 4), 3 mg/kg of cisapride suspended in 0.5% carboxymethylcellulose was orally administered to mice as the positive control drug administration group (No. 5) and 0.5% carboxymethylcellulose was orally administered to mice of the […] (No. 1) and the no drug and no cholecystokinin treatment group (No. 6). Next, 5 minutes before the phenol red administration, 5 μg/kg of cholecystokinin (CCK8s, manufactured by Sigma) which had been dissolved in distilled water and then diluted with physiological saline was intraperitoneally administered to mice of each group. Thereafter, phenol red dissolved in 1% methylcellulose was orally administered with a dose of 0.2 mg/0.3 ml/mouse. After 30 minutes of the phenol red administration, each mouse was sacrificed by cervical dislocation to excise the stomach, and the amount of phenol red remaining in the excised stomach was measured to calculate the gastric emptying rate (%) by the following formula.
Gastric emptying rate (%)=[1-(phenol red recovered from drug-applied
(X is the average value of the recovered phenol red remaining in the stomach excised from each mouse sacrificed just after the phenol red administration)

[2] = tested on: dopamine-induced delayed gastric emptying model; test: Effect on gastric emptying in dopamine-induced delayed gastric emptying model (phenol red method); type: in vivo, male Slc:ddY mice; conditions: for Gastric emptying rate (%): 90 min before phenol red, dopamine 30 mg/kg i.p. 5 min before, measured 30 min after phenol red
Experimental: Effect on gastric emptying in dopamine-induced delayed gastric emptying model (phenol red method) After overnight fasting, male Slc:ddY mice of 6 to 7 weeks of age (body weight, 28 to 32 g; SLC, Shizuoka, Japan) were divided into 7 groups, namely a group in which dopamine was administered with no drug treatment (No. 1 in Table 2), groups in which dopamine was administered after administration of the compound A (Nos. 2 to 5), a group in which dopamine was administered after administration of cisapride as a positive control (No. 6) and a group in which dopamine and drug treatments were not made (No. 7). Seven mice were used in each group. First, 90 minutes before the administration of phenol red, 0.01 mg/kg, 0.03 mg/kg, 0.1 mg/kg or 0.3 mg/kg of the compound A suspended in 0.5% carboxymethylcellulose was orally administered to mice of the compound A administration groups (Nos. 2 to 5), 3 mg/kg of cisapride suspended in 0.5% carboxymethylcellulose was orally administered to mice as the positive control drug administration group (No. 6) and 0.5% carboxymethylcellulose was orally administered to mice as the dopamine administration group with no drug treatment (No. 1) and the no drug and no dopamine treatment group (No. 7). Next, 5 minutes before the phenol red administration, 30 mg/kg of dopamine which has been dissolved in distilled water and then diluted with physiological saline was intraperitoneally administered to mice of each group. Thereafter, phenol red dissolved in 1% methylcellulose was orally administered with a dose of 0.2 mg/0.3 ml/mouse. […] mouse/X)]×100 (X is an average value of the recovered phenol red remained in the stomach excised from each mouse sacrificed just after the phenol red administration)

[3] = tested on: patients diagnosed as chronic gastritis and the like without morphological changes in the stomach; test: Effects on subjective symptoms in patients; type: in vivo, human
Excerpt: (§1) Effects on subjective symptoms and gastric emptying in patients
(§2) A total of 8 patients diagnosed as chronic gastritis and the like without morphological changes in the stomach were examined in this test, each patient complaining of medium or more intense chronic epigastric fullness, having other NUD (or epigastric dysfunction complaints) such as gastric oppression, nausea, vomiting, anorexia, heartburn and the like and also showing delayed gastric emptying.
(§3) Each patient was allowed to take 2 tablets of the test pharmaceutical preparation of Example 1 three times a day 15 to 30 minutes before morning, noon and evening meals (600 mg of compound A/day), and the administration was continued for 2 weeks. Subjective symptoms (Table 3) were checked before and 2 weeks after the administration and gastric emptying (Table 4) was checked before and 2 weeks after the administration.
Subjective symptoms were examined by checking existence of the symptoms before and 2 weeks after the administration.

[4] = tested on: patients diagnosed as chronic gastritis and the like without morphological changes in the stomach; test: Effect on gastric emptying in patients (acetaminophen method); type: in vivo, human
Excerpt: as §1, §2, §3
Gastric emptying was examined in accordance with the acetaminophen method of Heading et al (cf. Br. J. Pharmacol. 47 415-421 (1973)). That is, each patient after overnight fasting with no drug administration was allowed to take a test food (200 ml of a liquid natural food OKUNOS-A, thoroughly mixed with 1.5 g of acetaminophen) at 9 a.m. and then to take a seat without eating and drinking until completion of the examination. Heparinized blood samples were collected before and 45 minutes after the administration. Thereafter, serum was separated from each sample to measure serum acetaminophen concentration by a high performance liquid chromatography (HPLC).

[5] = 2 tablets of Example 1 three times a day (600 mg of compound A/day), 2 weeks

## COc1cc(N)c(Cl)cc1C(=O)NC1CCN(CCCOc2ccc(F)cc2)CC1OC (stereo not drawn) [Cisapride, cisapride, reference compound]
[1]; positive control, 3 mg/kg oral
  Gastric emptying rate (%): 36.7 ± 6.8%
[2]; 3 mg/kg oral
  Gastric emptying rate (%): 23.4 ± 6.6%

## CNC(=O)c1cccc(NCC(=O)NCCc2ccc(OC)c(OC)c2)c1 [Compound A, 3-[[[2-(3,4-dimethoxyphenyl)ethyl]carbamoyl]methyl]amino-N-methylbenzamide]
[3]; [5]
  Symptom-disappeared cases/tested cases: Abdominal distension: 7/7
  Symptom-disappeared cases/tested cases: Anorexia: 3/3
  Symptom-disappeared cases/tested cases: Epigastralgia: 4/4
  Symptom-disappeared cases/tested cases: Gastric disphoria: 4/4
  Symptom-disappeared cases/tested cases: Heartburn: 2/2
  Symptom-disappeared cases/tested cases: Nausea: 4/4
  Symptom-disappeared cases/tested cases: Vomiting: 3/3
[3]; patients No. 1 to No. 8, after 2 weeks, 600 mg/day oral
  disappearance of subjective symptoms: complete disappearance of subjective symptoms
[4]; 2 weeks after start, 600 mg of compound A/day oral, individual patients No. 1 to 8 in order, 45 minutes after 1.5 g acetaminophen in test food
  Serum acetaminophen concentration, After administration: 7.6 µg/mL and 10.1 µg/mL and 12.8 µg/mL and 7.8 µg/mL and 7.3 µg/mL and 8.1 µg/mL and 8.5 µg/mL and 7.1 µg/mL
[4]; 2 weeks, 600 mg of compound A/day oral
  amelioration of gastric emptying (cases): 7 of the 8
[4]; baseline before drug administration, individual patients No. 1 to 8 in order, 45 minutes after 1.5 g acetaminophen in test food
  Serum acetaminophen concentration, Before administration: 7.6 µg/mL and 8.4 µg/mL and 8.0 µg/mL and 6.1 µg/mL and 6.9 µg/mL and 6.6 µg/mL and 5.2 µg/mL and 4.6 µg/mL
[1]; 1 mg/kg oral
  Gastric emptying rate (%): 24.8 ± 2.1%
[1]; 1 mg/kg, 3 mg/kg or 10 mg/kg oral, vs CCK-treated mice with reduced gastric emptying rate
  gastric emptying rate improved: improved in a dose dependent fashion
[1]; 3 mg/kg oral
  Gastric emptying rate (%): 27.6 ± 4.2%
[1]; 10 mg/kg oral
  Gastric emptying rate (%): 40.5 ± 6.9%
[2]; 0.01 mg/kg oral
  Gastric emptying rate (%): 6.9 ± 4.7%
[2]; 0.01 mg/kg, 0.03 mg/kg, 0.1 mg/kg or 0.3 mg/kg oral, vs dopamine-treated mice with reduced gastric emptying rate
  gastric emptying rate improved: improved
[2]; 0.03 mg/kg oral
  Gastric emptying rate (%): 21.2 ± 6.1%
[2]; 0.1 mg/kg oral
  Gastric emptying rate (%): 18.1 ± 8.3%
[2]; 0.3 mg/kg oral
  Gastric emptying rate (%): 36.2 ± 10.2%

## NCCc1ccc(O)c(O)c1 [dopamine, reference compound]
[2]; 30 mg/kg dopamine intraperitoneal, no drug
  gastric emptying rate reduced to (fraction): 1/20

## cholecystokinin (DY(SO3H)MGWMDF; not fully specified (C-terminus); ends and bridges not checked; UniProt P06307 96-103, looked up) [cholecystokinin (CCK8s, manufactured by Sigma), reference compound]
[1]; 5 μg/kg cholecystokinin intraperitoneal, no drug
  gastric emptying rate reduced to (fraction): 1/3
